How the values were obtained:
Sprague-Dawley rats = assay: Withdrawal latencies after noxious thermal (laser) stimulation to the ears or hindpaws after intranasal administration; type: in vivo, rat; settings: 10 μg intranasal, tested five minutes after final application
From the text: Activity of an analgesic agent can be tested in a rat model by studying treatment-induced changes in latencies (times) of withdrawal in response to noxious heating of the skin, typically applying a stimulus to an ear or a hindpaw. Thus, application of coherent or non-coherent (non-laser) radiant heat to the ear or hindpaw will elicit rapid withdrawal movements. […] Transmucosal or transdermal administration of analgesic agents can be tested for regional and/or systemic analgesia. After administration of an analgesic agent an increase in latency to withdrawal time of the ear would indicate regional analgesia. A change in the latency to withdrawal time of the hindpaw would indicate whether there was a systemic analgesic effect, i.e. no change in the latency to withdrawal time indicates no systemic effect, while an increase in latency to withdrawal time would indicate a systemic effect.
Rats are housed in a 12/12-hour light/dark environment and are provided food and water ad libitum. […]
Sprague-Dawley rats (Charles River Laboratories) were lightly anesthetized with urethane and placed with minimal restraint on a heating pad to maintain their body temperature at 37° C. […] Baseline withdrawal latencies were measured by delivering 4 separate stimuli with a resting period of approximately 15 minutes between each stimulus. […] As described above, testing sessions were videotaped and analyzed. […]

“hangover” headache = assay: Intranasal oxytocin in a patient, pain rating on VAS (0-10); type: in vivo, human; settings: 24 IU intranasal, baseline 8 out of 10
Experimental: (§1) Upon presentation at the clinic, a patient is asked for a pain assessment (0-10 rating on VAS). The VAS is an 11-point numerical pain rating scale wherein 0 equals “no pain” and 10 equals the “worst pain imaginable”. The analgesic agent is self-administered by nasal applicator. Initially, one puff is given in each nostril. After waiting 15 minutes the patient is asked again for a pain rating and any side effects (e.g. sedation) are assessed. If pain is still present, another puff per nostril is self-administered. After another 15 minutes, pain and side-effects are assessed. If pain is still present, two mote puffs of agent are self-administered. After 15 minutes, pain is rated again, and side effects are assessed. If pain is still present, a final two puffs are given. After another 15 minutes and at 15, 30 and 60 minutes after that, pain and side-effects are re-assessed.
A patient was seen reporting a “hangover” headache which was rated as an 8 out of 10 as assessed by the procedure described herein. The patient was treated with oxytocin administered intranasally at a dose of 24 IU. The patient reported that the headache completely resolved within 15 minutes.

[1] = test system: severe headaches secondary to adult hydrocephalus and multiple shunt surgeries; assay: as above; type: in vivo, human
Experimental: as §1
The patient's pain had been unrelieved by treatment with triptans, ergotamines, and high-dose opiates. The patient presented with a pain rating of 8 out of 10 as assessed by the procedure described herein. The patient self-administered oxytocin intranasally at a dose of 4 IU in 0.2 ml. […] Pain relief lasted approximately 24 hours, only briefly interrupted by mild head pain that occurred with activity.
This patient returned to the clinic approximately 1 month later. At this appointment the patient rated the pain as an 8 out of 10. Unbeknownst to them, the patient was first given an intranasal administration of normal saline, in approximately the same volume as used for the oxytocin administration (0.2 ml). No analgesic or other effect was reported by the patient. After waiting 30 minutes, the patient was administered 4 IU of oxytocin intranasally as described above. Within 20-25 minutes, the patient reported that the pain was completely gone. […] Pain returned approximately 24 hours after treatment.

[2] = test system: single pain sensing nerve cells in the trigeminal ganglion; assay: Trigeminal ganglion nerve impulses in response to noxious laser pulses to the face; type: in vivo, rat; settings: 10 nmoles applied to the nose, post- vs pre-oxytocin
Experimental: Sprague-Dawley rats (Charles River Laboratories) were anesthetized with isofluorane and a platinum electrode was inserted transcranially into the trigeminal ganglion. Nerve impulses (action potential) were recorded from single pain sensing nerve cells in the trigeminal ganglion in response to application of noxious laser pulses to the face of the rats. After recording responses to several identical laser pulses, 10 nmoles of oxytocin was applied to the nose of the rats. Thereafter, identical laser pulses were once again applied and recorded.

[3] = test system: “stress” or tension headache; type: in vivo, human; settings: 4 IU in 0.2 ml intranasal
Experimental: as §1
A patient was seen reporting a “stress” or tension headache for which they rated their head pain as a 5 out of 10 as assessed by the procedure described herein. The patient was treated with oxytocin administered intranasally at a dose of 4 IU in 0.2 ml. Approximately 10-15 minutes after administration, the patient reported that the pain was completely gone. […] The patient reported being pain free for approximately 48 hours.

“cluster” headache = assay: Intranasal oxytocin in a patient with headache; type: in vivo, human; settings: 16 IU intranasal
Experimental: as §1
A patient was seen reporting having an ongoing strong headache with occasional boring pain on the left side. The pain had lasted for more than 2 weeks and had been diagnosed as a “cluster” headache. The patient was treated with oxytocin administered intranasally at a dose of 16 IU. The patient reported that their headache completely resolved within 15 minutes and relief lasted for 24 hours.

daily migraine = assay: Intranasal oxytocin in a patient, pain rating on VAS (0-10); type: in vivo, human; settings: 24 IU intranasal, baseline pain rating 4 out of 10
Experimental: as §1
A patient was seen after reporting a daily migraine which they rated as a mild to moderate headache with a pain rating of 4 out of 10 as assessed by the procedure described herein. The patient was treated with oxytocin administered intranasally at a dose of 24 IU. The patient reported that the oxytocin decreased the pain to a rating of 2 out of 10.

[4] = test system: trigeminal nucleus caudalis wide dynamic range (WDR) neurons; assay: Electrical stimulation-induced responses, single unit extracellular recordings in trigeminal nucleus caudalis; type: in vivo, rat
Experimental: Male Sprague-Dawley rats (Charles River Laboratories) were anesthetized with isoflurane and used in the following experiments. In the anesthetized rats, single unit, extracellular recordings were performed in trigeminal nucleus caudalis while stimulating the ipsilateral facial skin with constant-current bipolar electrical stimulation. Epoxylate-insulated, tungsten microelectrodes (10 MOhm) were used under stereotaxic coordinate control.
Shown are responses (action potentials per 30 stimuli) to repeated stimulation of a rat's face before oxytocin administration (pre-oxytocin). After administration with oxytocin at approximately 0.1 IU, responses were recorded every five minutes for 65 minutes. A second administration of oxytocin at the same dosage was administered at approximately 70 minutes after the first dose. The approximate site of the administration of the electrical stimulation is indicated by the black spot on a map of the rat's face (FIG. 3B).

[5] = first visit, 4 IU in 0.2 ml intranasal
[6] = first visit, 4 IU intranasal, baseline pain rating 8 out of 10
[7] = approximately 0.1 IU intranasal, first administration
[8] = second dose, same dosage, approximately 70 minutes after the first

**Q.** `CC[C@H](C)[C@@H]1NC(=O)[C@H](Cc2ccc(O)cc2)NC(=O)[C@@H](N)CSSC[C@@H](C(=O)N2CCC[C@H]2C(=O)N[C@@H](CC(C)C)C(=O)NCC(N)=O)NC(=O)[C@H](CC(N)=O)NC(=O)[C@H](CCC(N)=O)NC1=O` [oxytocin, Cys-Tyr-Ile-Gln-Asn-Cys-Pro-Leu-Gly] was tested. Which “regional analgesic effect (ear withdrawal latency)” value (Sprague-Dawley rats; laser to ears) did it give?
**A.** achieved a regional analgesic effect in the head region

**Q.** And the “systemic analgesic effect (hindpaw withdrawal latency)” value (Sprague-Dawley rats; laser to hindpaws)?
**A.** without a systemic analgesic effect at the hindpaw

**Q.** What about the “time until headache completely resolved” value (“hangover” headache) of the same molecule?
**A.** ≤ 15 min

**Q.** What about the sedation [1, 5] of the same molecule?
**A.** mild sedation

**Q.** And the “time for sedation to clear” value [1, 5]?
**A.** ≤ 10 min

**Q.** And the “time to onset of sedation” value [1, 5]?
**A.** ≤ 5 min

**Q.** What about the “breast tenderness the day after treatment” value ([1]; first visit, 4 IU intranasal) of the same molecule?
**A.** some breast tenderness

**Q.** And the “duration of pain relief” value ([1]; first visit, 4 IU intranasal)?
**A.** approximately 24 hours

**Q.** What about the “time for breast tenderness to resolve” value ([1]; first visit, 4 IU intranasal) of the same molecule?
**A.** ≤ 24 h

**Q.** What about the “headache pain by 15 minutes after administration” value [1, 6] of the same molecule?
**A.** significantly reduced

**Q.** And the “time until pain completely gone” value [1, 6]?
**A.** ≤ 30 min

**Q.** What about the “time until pain completely gone” value ([1]; second visit about 1 month later, 4 IU intranasal 30 minutes after saline, baseline 8 out of 10) of the same molecule?
**A.** 20 to 25 min

**Q.** What about the “breast tenderness the following day” value ([1]; second visit, 4 IU intranasal) of the same molecule?
**A.** nor was there any breast tenderness

**Q.** And the sedation ([1]; second visit, 4 IU intranasal)?
**A.** no observed sedation

**Q.** And the “time until pain returned after treatment” value ([1]; second visit, 4 IU intranasal)?
**A.** approximately 24 hours

**Q.** What about the “neuronal response to noxious laser pulses (average nerve impulses per laser pulse)” value [2] of the same molecule?
**A.** significantly (p<0.05) reduced

**Q.** What about the duration pain free [3] of the same molecule?
**A.** approximately 48 hours

**Q.** And the “time until pain completely gone” value ([3]; baseline pain 5 out of 10)?
**A.** 10 to 15 min

**Q.** What about the duration of relief (“cluster” headache) of the same molecule?
**A.** 24 h

**Q.** And the “time until headache completely resolved” value (“cluster” headache)?
**A.** ≤ 15 min

**Q.** And the “pain rating after treatment” value (daily migraine)?
**A.** 2 out of 10

**Q.** And the “responses (action potentials per 30 stimuli) after first administration” value [4, 7]?
**A.** significant reduction in responses

**Q.** And the “time of beginning of reduction in responses after first administration” value [4, 7]?
**A.** 10 min

**Q.** And the “time post treatment until which reduction continued (responses then began to increase)” value [4, 7]?
**A.** 50 min

**Q.** What about the “responses (action potentials per 30 stimuli) after second administration” value [4, 8] of the same molecule?
**A.** significant reduction in responses

**Q.** What about the “time to reduction in responses after second administration” value [4, 8] of the same molecule?
**A.** ≤ 10 min

Reference: patent US8501691B2, “Methods for treatment of headaches by administration of oxytocin” (The Board of Trustees of the Leland Stanford Junior …, priority 2005, dated 2013)
